Experimental data published in patent US10787423B2, “Piperazine and piperidine derivatives, their synthesis and use thereof in inhibiting VDAC oligomerization, apoptosis and mitochondria dysfunction” (THE NATIONAL INSTITUTE FOR BIOTECHNOLOGY IN THE NEGEV LTD., priority 2015, dated 2020).
Like-named read-outs stand apart in the source and are kept apart here.

What was measured:
SHSY5Y cells = test: 6-hydroxydopamine-induced cell toxicity, XTT cell viability; format: cell-based; details: Homo sapiens, SH-SY5Y, 24 h, read-out: concentration giving 50% decrease in cell survival
Experimental: (§1) SHSY5Y (obtained from ATCC) were grown at 37° C. under an atmosphere of 95% air and 5% CO2 in DMEM medium supplemented with 10% fetal bovine serum, 2 mM L-glutamine, 1000 U/ml penicillin, and 1 mg/ml streptomycin until 60-70% of confluence. Further, the cells were incubated with increasing concentrations of 6-hydroxydopamine. After 24 hours, and cells viability was assayed using the XTT (2,3-bis-(2-methoxy-4-nitro-5-sulfophenyl)-2H-tetrazolium-5-carboxanilide) method, according to the supplier instructions. […] The 50% decrease in cell survival was obtained at about 50 μM of 6-hydroxydopamine.
(§2) Cell viability as assayed following 24 h incubation with different concentrations of 6-hydroxydopamine in the absence (closed squares (▪)) or in the presence of VBIT-12 (15 μM, closed circles (●)) is shown.
(§3) Similarly, cells that were incubated with increasing concentrations of VBIT-12 in presence of either 30 or 50 μM of 6-hydroxydopamine that decreased cell viability by […], respectively, remained viable after 24 hours of the incubation. Cells viability is charted in FIG. 24C versus the concentrations of VBIT-12. Closed squares (▪) indicate control group without 6-hydroxydopamine, open circles (◯) indicates cells' viability when exposed to 30 μM of the 6-hydroxydopamine, and closed circles (●) indicate cells viability at 50 μM of the 6-hydroxydopamine.

[1] = as above; format: cell-based; details: human, 24 h, read-out: decrease in cell viability
Experimental: as §1, §2, §3

VDAC1 = VDAC1 (Homo sapiens, UniProt P21796); test: Selenite-induced VDAC1 oligomerization by EGS cross-linking and immunoblot in HEK-293 cells (Method B); format: cell-based; parameters: endogenous in cells; host or cells: HEK-293
Experimental: Appropriate test cells (2.5-3 mg/ml) in PBS, were harvested after the treatment and incubated with the cross-linking reagent EGS at a ratio of 100-300 μM for sample of 2-3 mg protein/ml concentration (pH 8.3) for 15 minutes. Protein concentration was determined according to Lowry assay. Samples (60-80 μg protein) were subjected to SDS-PAGE by a standard technique and immunoblotting was performed using anti-VDAC1 antibodies. Gels were electro-transferred onto nitrocellulose membranes for immuno-staining. The membranes were incubated with a blocking solution containing 5% non-fat dry milk and 0.1% Tween-20 in Tris-buffered saline, followed by incubation with monoclonal anti-VDAC1, anti-Cytochrome c, anti-AIF or anti-actin antibodies. Membranes were then incubated with HRP-conjugated anti-mouse or anti-rabbit IgG (1:10,000), serving as secondary antibodies. Antibody labeling was detected by chemiluminescence. To detect VDAC1 oligomers, membranes were treated with 0.1 M glycine, pH 2.0, prior to immunoblotting and washed several times with 0.1% Tween-20 in Tris-buffered saline. Quantitative analysis of immuno-reactive VDAC1 dimer, trimer and multimer bands was performed using FUSION-FX (Vilber Lourmat, France).
The closed circle (●) indicates VBIT-4 (compound of Formula 1), the open circle (◯) indicates compound of Formula 10, and an open square (□) indicates VBIT-3 (compound of Formula 2).
(§4) d. IC50 values of the tested compounds were derived from the obtained data. The results shown correspond to means±SD (n=3).

[2] = test system: Cyto c release from mitochondria; test: Selenite-induced Cytochrome c release from mitochondria in HEK-293 cells; format: cell-based; details: Homo sapiens, HEK293, compound 2 h then selenite 15 μM 4 h, means±SD (n=3)
Experimental: One of the ways cell apoptosis is activated is by release of Cytochrome c (Cyto c) from the mitochondria into cytosol. […] Cyto c released to the cytosol may be analyzed by immunoblotting using Cyto c-specific antibodies.
Cells treated with apoptosis inducers in the absence or presence of the tested compounds were harvested, washed twice with PBS, pH 7.4 and gently resuspended at 6 mg/ml in ice-cold buffer (100 mM KCl, 2.5 mM MgCl2, 250 mM sucrose, 20 mM HEPES/KOH pH 7.5, 0.2 mM EDTA, 1 mM dithiothreitol, 1 μg/ml leupeptin, […] and 0.1 mM PMSF) containing 0.025% digitonin and incubated for 10 min on ice. Samples were centrifuged at 10,000×g (relative centrifugal force—RCF) at 4° C. for 5 min to obtain supernatants (cytosolic extracts free of mitochondria) and pellet (fraction that contains mitochondria). Cytochrome c released to the cytosol was analyzed by immunoblotting using Cytochrome c-specific antibodies. Anti-VDAC1 and anti-GAPDH antibodies were used to verify that the cytosolic extracts are mitochondria-free.
c. Cytochrome c (Cyto c) release was determined as described above in Methods (Cytochrome c release from mitochondria). Briefly, to assess Cyto c release, cells were incubated on ice for 10 min with 0.025% digitonin, centrifuged, and the pellet (mitochondria—Mito) and supernatants (cytosol—Cytos) were subjected to SDS-PAGE and immunoblotting, using anti-Cyto c, antibodies. Anti-VDAC1 and anti-GAPDH antibodies were used to verify that the cytosolic extracts are mitochondria-free. The results of Cyto c release from the mitochondria as induced by selenite are presented as immunoblots, with the cytosolic and mitochondrial fractions confirmed by immunoblotting of GAPDH (glyceraldehyde-3-phosphate dehydrogenase) and VDAC1, respectively, in the FIG. 15d. The data are presented as percent inhibition. The results shown correspond to means±SD (n=3). The closed circle (●) indicates VBIT-4 (compound of Formula 1), the open circle (◯) indicates compound of Formula 10 (AKOS-022), and an open square (□) indicates VBIT-3 (compound of Formula 2).
d. […]

purified VDAC1 = biological target: T1, purified VDAC1 (Rattus norvegicus, UniProt Q9Z2L0); test: Microscale thermophoresis (MST) binding to purified VDAC1
T1 construct: rat liver mitochondria (5 mg/ml) in 10 mM Tris-HCl, pH 7.2, were incubated with 2% LDAO; from tissue; host or cells: rat liver mitochondria
Experimental: To obtain quantitative parameters of this interaction and derive a dissociation constant, e.g. a microscale thermophoresis (MST) interaction assay may be performed. In this manner, dissociation values are derived from the curves showing the affinity of the compounds of the invention to VDAC.
Briefly, rat liver mitochondria (5 mg/ml) in 10 mM Tris-HCl, pH 7.2, were incubated with 2% LDAO at 0° C. for 20 min, followed by centrifugation (30 min, 14,000 g) and the obtained supernatant was loaded onto a dry celite:hydroxyapatite (2:1) column. VDAC1 was eluted with a solution containing 2% LDAO, 10 mM Tris-HCl, pH 7.2, 50 mM NaCl, and 20 to 22 mM NaH2PO4, with VDAC1 detection by Coomassie blue staining. The VDAC1-containing fractions were dialyzed against 10 mM Tris-HCl, pH 7.2, and subjected to a second chromatography step on a carboxymethyl-cellulose (CMC) column from which VDAC1 was eluted with a solution containing 10 mM Tris-HCl, pH 7.2, 0.1% LDAO and 500 mM NaCl, detected as above. The VDAC1-containing fractions were collected and used for VDAC1 channel conductance and MST assays.
MST analysis was performed using a NanoTemper Monolith NT.115 apparatus. […]
Purified VDAC1 (133 nM), labeled using the NanoTemper fluorescent protein-labeling Kit BLUE (Nano Temper technologies, Munich, Germany), according to the manufactory instructions, was incubated with increasing concentrations of the following tested compounds: compound of Formula 10 (AKOS-022), compound of Formula 2 (VBIT-3), or racemic compound of Formula 1 (VBIT-4). After 20 min of incubation, the samples (3-5 μL) were loaded into MST-grade glass capillaries (Monolith NT Capillaries), and the thermophoresis process was measured using the Monolith-NT115 apparatus.
Fmax and Fmin represent the maximal and minimal fluorescence, respectively and F the fluorescence measured in the presence of the tested compound.
VDAC1 binding affinities of tested compounds were calculated from the MST measurements.

HEK-293 cells = test: Selenite-induced apoptosis, annexin V-FITC/PI staining and FACS, HEK-293 cells; format: cell-based; details: Homo sapiens, HEK293, compound 2 h then selenite 15 μM 4 h, means±SD (n=3)
Experimental: The ability of the compounds of general Formulae (I), (Ia), (Ib), (Ic), (Id), (II) and (IIa) to inhibit apoptosis may be analyzed by annexin-V/propidium iodide (PI) staining and flow cytometry.
Cells, e.g. HeLa cells (2×10^5), untreated or treated with apoptosis-inducing reagents, were analyzed for apoptotic cell death using PI, annexin V-FITC and flow cytometer analysis. Cells were collected (1500×g for 10 min), washed, and resuspended in 200 μl binding buffer (10 mM HEPES/NaOH, pH 7.4, 140 mM NaCl, and 2.5 mM CaCl2). Annexin V-FITC was added according to the recommended Protocol (Enzo Life Sciences, Switzerland), and the cells were incubated in the dark for 15 min. Cells were then washed with binding buffer and resuspended in 200 μl binding buffer, to which PI was added immediately before flow cytometry analysis. At least 10,000 events were collected, recorded on a dot plot, and analyzed by the FACSCalibur™ flow cytometer software (BD Biosciences, Franklin Lakes, N.J.).
b. Additionally, the inhibition of selenite-induced apoptosis by the compounds as analyzed using annexin V-FITC/PI staining and FACS, presented in the FIG. 15c.
as §4

[3] = Brain penetration after oral gavage, HPLC/MS of brain extracts; format: in vivo, C57BL/6 mice; details: for concentration at 12 h / concentration at 24 h: C57BL/6, mouse, brain, oral, 50 mg/kg, mouse, read-out: Compounds in brain extract
Experimental: C57BL/6 mice ([…]) were used. The animals received treatments with either free compounds of Formulae 1 and 10, or encapsulated compounds, prepared according to the Examples 16 and 17. Doses as indicated in the Table 4 below were administered in phosphate-buffered saline (PBS) through an oral gavage. After 12 hours and 24 hours, randomly selected mice from each group were sacrificed, their brains collected and stored in −80° C. The concentrations of the compounds in the tissues were determined by HPLC/MS analysis.
Tissue samples were homogenized in phosphate-buffered saline solution, then diluted with acetonitrile to 50% v/v, centrifuged at 10,000 g for 10 minutes, and supernatants were analyzed. The compounds concentrations in the brain extracts were determined from calibration curves. The results were the averaged from 2 mice for each treatment group/time point.

[4] = IC50 for several activities / effective range (activity not specified); details: quoted for comparison with brain levels
[5] = 50 mg/kg in PLGA nanoparticles, oral gavage
[6] = 50 mg/kg oral gavage, free compound

Chain of VDAC1 (P21796 whole entry): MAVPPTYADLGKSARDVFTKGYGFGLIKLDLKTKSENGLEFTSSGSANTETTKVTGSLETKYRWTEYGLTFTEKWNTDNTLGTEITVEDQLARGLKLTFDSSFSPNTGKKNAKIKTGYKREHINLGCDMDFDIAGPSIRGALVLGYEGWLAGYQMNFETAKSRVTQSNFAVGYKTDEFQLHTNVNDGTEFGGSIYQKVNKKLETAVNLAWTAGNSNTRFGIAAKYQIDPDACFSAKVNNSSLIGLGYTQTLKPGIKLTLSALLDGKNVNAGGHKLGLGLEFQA
T1 sequence (Q9Z2L0 whole entry): as the sequence (P21796 whole entry) above, with T55N, M129V, A160S, I227V counted along it

Row | IC50 (VDAC1; HEK-293 cells, compound 2 h then selenite 15 μM 4 h, means±SD (n=3), read-out: VDAC1 oligomerization IC50) [µM] | Kd (purified VDAC1; MST, purified VDAC1 133 nM, 20 min incubation, means±SD (n=3), read-out: VDAC1 binding affinities) [µM] | Structure (SMILES) | 6-hydroxydopamine concentration giving 50% decrease in cell survival (SHSY5Y cells) [µM] | cytotoxicity at 24 h, 30 μM ([1]; 30 μM 6-hydroxydopamine) [%] | cytotoxicity at 24 h, 50 μM ([1]; 50 μM 6-hydroxydopamine) [%] | IC50 [2] [µM] | IC50 (HEK-293 cells) [µM] | IC50 (VDAC1) [µM] | Kd (purified VDAC1) [µM] | concentration at 12 h [3, 5] [µM] | concentration at 24 h [3, 5] [µM] | concentration at 12 h [3, 6] [µM] | concentration at 24 h [3, 6] [µM] | brain penetration ([3]; given orally, in solution or encapsulated in PLGA nano-particles) | IC50 [4] [µM]
1 |  |  | NCCc1cc(O)c(O)cc1O [6-hydroxydopamine, reference compound] | ~50 | 90 | 95 |  |  |  |  |  |  |  |  |  | 
2 | 8.8 ± 0.56 | 31.3 ± 1.7 | O=C1CC(N2CCN(c3ccc(OC(F)(F)F)cc3)CC2)C(=O)N1c1ccc(Cl)cc1 (centres unmarked) [Formula 2, 1-(4-chlorophenyl)-3-(4-(4-(trifluoromethoxy)phenyl)piperazin-1-yl)pyrrolidine-2,5-dione] |  |  |  | 6.6 ± 1.03 | 7.5 ± 0.27 |  |  |  |  |  |  |  | 
3 |  |  | O=C1CC(N2CCC(Nc3ccc(OC(F)(F)F)cc3)CC2)C(=O)N1c1ccc(Cl)cc1 (centres unmarked) [Formula 10] |  |  |  | 3.6 ± 0.4 | 3.4 ± 0.2 | 3.3 ± 0.18 | 15.4 ± 2.9 | 4.36 ± 0.148 | 2.8 ± 1.19 | 4.2 ± 0.714 | 1.24 ± 0.23 | reached the brain | 1
